Source: patent US20070104811A1, “Pharmaceutical composition useful for the treatment of prostate cancer” (priority 2005, published 2007)

Key:
[1] = tested on: neonatal skeletal muscle cell; assay: Cell viability of control cells: neonatal skeletal muscle cell; type: cell-based, rat; settings: 100 μg/ml M. koenigii + 100 μg/ml T. terrestris, total 200 μg/ml; 96 h
Description: The skeletal muscles from 2-day-old neonatal rat were isolated by method described previously by William E Russell (1997) with modifications. Briefly, Soleus muscle were dissected, minced and digested with 0.2% Type II Collagenase and 0.05% trypsin in Phosphate buffered Saline (PBS) pH 7.4, 0.15M NaCl. The dispersed skeletal muscle cells were centrifuged (1000 g, 10 minutes) washed and resuspended in Phosphate buffered Saline (PBS) with 1% antibiotic-antimycotic. Cells were preincubated for 30 minutes at 37° C., 95% air/5%CO2. The floating muscle cells were plated on collagen coated T-25 flaks in Dulbecco's modified Eagle Medium enriched with 10% Fetal. Bovine Serum and 1% antibiotic-antimycotic
Viability of PC-3 after treatment as at the indicated times was determined by MTT assay -Cell titre 96 AQoueus One solution Cell Proliferation Assay (Promega, Corp. Madison, Wis.) as per manufacturer's protocol. Briefly, 10,000 cells were plated in triplicate in 96 well plates and incubated for 12 hours in complete media. Compound MK-3 was added as indicated on replacing them to fresh complete media and incubated upto 96 hours for varied time periods. 20 μl per well of cell titre 96 AQoueus One solution reagent. […] Absorbance was recorded at 490 nm with 96 well plate readers. Reference wavelength of 630 nm was used to reduce background contributed by non-specific absorbance due to cell debris.

cardiomyocyte = assay: Cell viability of control cells: neonatal cardiomyocyte; type: cell-based, rat; settings: 100 μg/ml M. koenigii + 100 μg/ml T. terrestris, total 200 μg/ml; 96 h
Description: The cardiomyocytes from 2-day-old neonatal rat were isolated by the method previously described by Yoshihiro Kimura (1994) with modifications. Briefly, heart was excised and minced in pre warmed (37° C.) Ads buffer (1.2M NaCl, 198 mM HEPES, 54 mM KCl, 8.3 mM MgSO4, 55.4 mM glucose, 95 mM NaH2PO4), digested in typeII Collagenase 0.05% and Pancreatin in 3-succesive digestions of 15 minutes each. Supernatant was pooled and cells palleted at 2000 g, 10 minutes. Cells were resuspended and plated in collagen coated T-25 flaks in Medium-199 enriched with 10% Fetal Bovine Serum and 1% antibiotic-antimycotic.
(§1) Viability of PC-3 after treatment as at the indicated times was determined by MTT assay -Cell titre 96 AQoueus One solution Cell Proliferation Assay (Promega, Corp. Madison, Wis.) as per manufacturer's protocol. Briefly, 10,000 cells were plated in triplicate in 96 well plates and incubated for 12 hours in complete media. Compound MK-3 was added as indicated on replacing them to fresh complete media and incubated upto 96 hours for varied time periods. 20 μl per well of cell titre 96 AQoueus One solution reagent. Incubate the plate for 1-4 hours at 37° C. and humidified 5% CO2 atmosphere. Absorbance was recorded at 490 nm with 96 well plate readers. Reference wavelength of 630 nm was used to reduce background contributed by non-specific absorbance due to cell debris.

hepatocyte = assay: Cell viability of control cells: neonatal hepatocyte; type: cell-based, rat; settings: 100 μg/ml M. koenigii + 100 μg/ml T. terrestris, total 200 μg/ml; 96 h
Description: The hepatocytes from 2-day-old neonatal rat were isolated by method described previously by William E Russell (1997) with modifications. Briefly, the livers were perfused through the portal vein with a calcium-free solution consisting of 150 mM NaCl, 2.8 mM KCl, 5.5 mM glucose, and 25 mM HEPES (pH 7.6) for 10 min, followed by mincing and digestion in DMEM containing 0.05% collagenase type IV for 30 minutes. The cells were centrifuged (2000 g, 10 minutes) and dispersed in DMEM enriched with 10% fetal Bovine Serum, 1% antibiotic-antimycotic.
as §1

[2] = Acute toxicity as per WHO guidelines, haematological parameters; type: in vivo, Mice, Balb/C; settings: mahanine 2 gm/kg body weight orally once, 15 days after treatment; vehicle control 92
Description: (§2) Experiments for acute toxicity are performed as per the guidelines of WHO. Experimental subject: Mice, Balb/C Male, female. 25 gms body weight (approx) 16 mice were divided into 2 groups 8 animals were received the dosage of @2 gm/kg body weight of combined extract. Equal volume of the vehicle (DMSO) were given to 8 animals wherein dose administered orally once and then animals sacrificed and haematological parameters checked 15 days after treatment.
as §2, with “compound” for “dosage of”, “weight.” for “weight of combined extract.”, “haematological and biochemical” for “haematological”

Substance: mahanine
- toxic effects / cell death [1]: no sign of cell death
- toxic effects / cell death (cardiomyocyte): no sign of cell death
- toxic effects / cell death (hepatocyte): no sign of cell death
- WBC [2]: 89
